{"source": "patent US5985824A", "about": "“Methods and compositions for treating cystic fibrosis” (priority 1997, dated 1999)", "key": {"[1]": {"tested_on": "ΔF508-CFTR (C127-ΔF508-low cells)", "test": "immunoprecipitation analysis for mature band C-CFTR in C127-ΔF508-low cells", "type": "cell-based", "details": "DSG 10 to 100 μg/ml, 48 to 72 h", "text": "Detailed procedures for preparing cell lysates, immunoprecipitation, phosphorylation of CFTR using protein kinase A and [γ^32 P]ATP, and polyacrylamide gel electrophoresis have all been described previously (Cheng et al., (1995), supra.; Marshall et al., supra.).\n(§1) C127-ΔF508-low (mouse mammary tumor) is a recombinant cell line stably transfected with the cDNA encoding the mutant ΔF508-CFTR (Cheng et al. (1995), supra.; Marshall et al. (1994), J. Biol. Chem. 269: 2987-2995). […] C127-mock is a cell line that has been stably transfected with the backbone of the expression vector used to generate C127-ΔF508-low (Cheng et al. (1995), supra.). LLCPK1 -ΔF508 (pig kidney epithelial) is a recombinant cell line stably expressing low levels of the mutant ΔF508-CFTR protein (Marshall et al., supra.). The details of the generation, characterization and routine propagation of these cell lines has been described (Cheng et al. (1995), supra.; Marshall et al., supra.).\nTo test whether treatment with DSG may interfere with the ability of hsp70 to retain ΔF508-CFTR in the ER, recombinant C127 cells expressing ΔF508-CFTR were seeded onto glass coverslips and were exposed to DSG (10 to 100 μg/ml) (Bristol Myers Squibb, Seattle, Wa.) for 48 to 72 h. Analysis for evidence of mature band C-CFTR (Cheng et al. (1990), supra.) which would be indicative of processing of ΔF508-CFTR in the Golgi was performed. […]"}, "[2]": {"tested_on": "ΔF508-CFTR (C127-ΔF508-low cells)", "test": "SPQ halide efflux assay, cAMP-stimulated Cl- channel activity, C127-ΔF508-low cells", "type": "cell-based", "experimental": "The cAMP-dependent CFTR Cl^- channel activity was assessed using the halide-sensitive fluorophore 6-methoxy-N-(3-sulfopropyl)-quinolinium (SPQ) essentially as described previously (Cheng et al., (1995), supra.; Marshall et al., supra.). Briefly, the cells were treated with different amounts of DSG for the times specified. At the end of the treatment period, the cells were loaded with SPQ by hypotonic shock for 4 min at room temperature. SPQ fluorescence initially was quenched by incubating the cells for up to 30 min in a NaI buffer (135 mM NaI, 2.4 mM K2 HPO4, 0.6 mM KH2 PO4, 1 mM MgSO4, 1 mM CaSO4, 10 mM dextrose, and 10 mM N-2 hydroxyethylpiperazine-N'2-ethanesulfonic acid, pH 7.4). After measuring the baseline fluorescence (Fo) for 2 min., the NaI solution was replaced with one containing 135 mM NaNO3, and fluorescence was measured for another 16 min. Forskolin (20 μM) and 3-isobutyl-1-methyl-xanthine (IBMX) (100 μM) were added 5 min after the anion substitution to increase intracellular levels of cAMP.\nAn increase in halide permeability is reflected by a more rapid increase in SPQ fluorescence. It is the rate of change rather than the absolute change in signal that is the important variable in evaluating anion permeability. Differences in absolute levels reflect quantitative differences between groups in SPQ loading, size of cells, or number of cells studied. The data are presented as means± SE of fluorescence at time t (Ft) minus the baseline fluorescence (Fo, the average fluorescence measured in the presence of I^- for 2 min. before ion substitution) and are representative of results obtained under each condition.\nFor each experiment, between 50 to 100 cells were examined on a given day and studies under each condition were repeated on at least two days. For each experiment, the responses were compared with those obtained with control or untreated cells. […] Under the conditions specified above, control cells were unresponsive to added cAMP agonists. There was a broad spectrum in the rate of change in SPQ fluorescence observed with responsive cells. Normally, cells were scored as responsive if they generated a minimum of a […] change in the rate of increase in SPQ fluorescence following stimulation with cAMP agonists. Because the response was heterogenous, the data shown are for the 10% of cells in each experiment showing the greatest response.\nA bovine-papilloma virus based eukaryotic expression vector (pBPV-CFTR-ΔF508) containing the gene for ΔF508 CFTR and neomycin resistance were transfected into C127 cells. The C127 cells are murine mammary cells which were obtained from ATCC (#CRL 1616). The expression of the mutant ΔF508 protein and neomycin was driven using a metallothionein promoter. Following transfection, clonal cells resistant to G418 were isolated and cells expressing the mutant ΔF508 protein were subsequently identified using antibodies specific for CFTR (mAb-13-1). The cells expressing the mutant ΔF508 CFTR protein were maintained in Dulbecco's modified eagle media (DMEM) supplemented with glutamine and fetal calf serum.\nas §1\nCells were treated with up to 100 μg/ml of DSG for up to 72 h. Concentrations of DSG >50 μg/ml were toxic to most of the cell types tested. […]"}, "[3]": {"tested_on": "ΔF508-CFTR (C127-ΔF508-low cells)", "test": "SPQ halide efflux assay, cAMP-stimulated Cl- channel activity, C127-ΔF508-low cells", "type": "cell-based", "details": "FIG. 1E"}, "immune responses": {"tested_on": "immune responses", "details": "T-cell dependent assays and models; cited from earlier work"}}, "note": "Entries after “also recorded” stand apart in the source; their conditions may differ.", "data": [{"smiles": "N=C(N)NCCCCCCC(=O)NC(O)C(=O)NCCCCNCCCN", "note": "(stereo not drawn) [DSG, deoxyspergualin]", "values": [{"measurement": "mature band C form of CFTR", "setting": "[1]", "value": "the presence of any mature band C-form of CFTR could not be demonstrated; also recorded: no discernible evidence of the mature band C form of CFTR"}, {"measurement": "response in mock transfected cells", "setting": "[2]; C127-mock cells, DSG treated", "value": "No response was observed"}, {"measurement": "cells generating a measurable response", "setting": "[2]; C127-ΔF508-low cells, SPQ, average of 5 experiments", "value": "Approximately 17%"}, {"measurement": "cAMP-stimulated change in SPQ fluorescence / Cl- channel activity, in words", "setting": "[2]; C127-ΔF508-low cells, DSG 10-100 μg/ml, sodium butyrate 5 mM 24 h, spermidine 5 μg/ml 72 h", "value": "marginal; also recorded: resulted in the appearance of functional cAMP-stimulated CFTR Cl^- channel activity at the cell surface; also recorded: gave a rapid change in fluorescence following stimulation with forskolin; also recorded: More optimal responses were observed in cells that were treated with lower concentrations of DSG compared to higher concentrations of DSG; also recorded: restored cAMP-stimulated anion efflux albeit to a lesser extent than was observed with sodium butyrate treatment; also recorded: less than that obtained with sodium butyrate"}, {"measurement": "percentage of mature CFTR produced from CFTR-ΔF508 upon exposure to reduced temperatures", "setting": "[3]", "value": "increases upon exposure to reduced temperatures"}, {"measurement": "immunosuppressive activity, in words", "setting": "immune responses", "value": "potent immunosuppressive activity"}]}]}
